Measurements as given in patent publication US6703362B1, “Random peptides that bind to gastro-intestinal tract (GIT) transport receptors and related methods” (Cytogen Corporation, priority 1997, dated 2004).
Peptide text beside a SMILES is read from it. * marks the point of attachment. Dansyl = CN(C)c1cccc2c(S(=O)(=O)*)cccc12

System: P100 membrane fractions derived from Caco-2 cells
Assay: Dansylated peptide ELISA: relative binding of PAX2 and HAX42 peptides to P100 (ratio to ZElan021)
Settings: ratio to ZElan021 = 1.00
Method: The peptides and proteins were analyzed by a dansylated peptide ELISA method in which 96 well plates were coated overnight at 4° C. with 100 μl/well coating protein (normally 100 μg/ml P100 membrane fraction) in 0.05M carbonate buffer pH9.6. Nonspecific binding was blocked using 200 μl/well, 2% Marvel/PBS for 2 hours at 37° C. prior to incubation with dansylated peptides. The plates were washed three times with PBS/0.05% Tween 20 and after each subsequent incubation step. […] A buffer blank control was included to ensure that background binding to plastic was not due to the antibodies used in the assay system. […] The plates were then incubated with an anti-mouse X-HRP conjugated antibody (Southern Biotech 1060-05) at a 1:10,000 dilution in blocking solution, 100 μl/well for 1 hour at room temperature. Plates were developed using 75 μl/well Bionostics TMB substrate and incubated for approximately 10 minutes. The developing reaction was stopped using Bionostics Red Stop solution (25 μl/well), and the optical density of the plates was read at 650nm.

[1] = PAX2 peptides, first 20 μg/ml column
[2] = PAX2 peptides, first 50 μg/ml column
[3] = PAX2 peptides, second 20 μg/ml column
[4] = PAX2 peptides, second 50 μg/ml column
[5] = HAX42 peptides, first 50 μg/ml column
[6] = HAX42 peptides, second 50 μg/ml column

Molecule	Binding value at 20 μg/ml [1]	Binding value at 50 μg/ml [2]	Binding value at 50 μg/ml [4]	Binding value at 50 μg/ml (Jackson Ab) (PAX2 peptides)	Binding value at 50 μg/ml (Southern Ab) (PAX2 peptides)	further results
CC(C)C[C@H](NC(=O)[C@H](CCCNC(=N)N)NC(=O)[C@H](CCCNC(=N)N)NC(=O)[C@@H](N)CCCCNS(=O)(=O)c1cccc2c(N(C)C)cccc12)C(=O)N[C@@H](CCCNC(=N)N)C(=O)N[C@H](C(=O)N[C@@H](CCCNC(=N)N)C(=O)N[C@@H](CO)C(=O)N[C@@H](CCCNC(=N)N)C(=O)N1CCC[C@H]1C(=O)N[C@@H](CC(N)=O)C(N)=O)[C@@H](C)O [ZElan056] (H-K(Dansyl)RRLRTRSRPN-NH2)	0.00	0.21	0.21			Binding value at 20 μg/ml [3]: 0.16
CC(C)C[C@H](NC(=O)[C@H](CCCNC(=N)N)NC(=O)[C@H](CCCNC(=N)N)NC(=O)[C@@H](N)CCCCNS(=O)(=O)c1cccc2c(N(C)C)cccc12)C(=O)N[C@@H](CCCNC(=N)N)C(=O)N[C@H](C(=O)N[C@@H](CCCNC(=N)N)C(N)=O)[C@@H](C)O [ZElan058, H2N—K(dns)RRLRTR—CONH2] (H-K(Dansyl)RRLRTR-NH2)	0.05	0.47	0.16			
CC(C)[C@H](NC(=O)[C@H](CCCCN)NC(=O)[C@H](CCCNC(=N)N)NC(=O)[C@@H](N)CCCCNS(=O)(=O)c1cccc2c(N(C)C)cccc12)C(=O)N[C@@H](Cc1ccccc1)C(=O)N[C@@H](CC(N)=O)C(=O)N[C@@H](CCCNC(=N)N)C(=O)N[C@@H](CCCNC(=N)N)C(=O)N[C@@H](CCCNC(=N)N)C(=O)N1CCC[C@H]1C(=O)N[C@@H](CO)C(N)=O [ZElan065] (H-K(Dansyl)RKVFNRRRPS-NH2)						Binding value at 20 μg/ml (HAX42 peptides): 0.00; Binding value at 50 μg/ml [5]: 0.54; Binding value at 50 μg/ml [6]: 0.30
C[C@@H](O)[C@H](NC(=O)[C@H](CO)NC(=O)[C@H](CC(N)=O)NC(=O)CNC(=O)[C@H](CC(N)=O)NC(=O)CNC(=O)[C@H](CS)NC(=O)[C@H](CS)NC(=O)[C@H](CC(N)=O)NC(=O)[C@H](Cc1ccc(O)cc1)NC(=O)[C@H](CC(=O)O)NC(=O)CNC(=O)[C@@H]1CCCN1C(=O)[C@H](CCC(=O)O)NC(=O)[C@@H](N)CCCCNS(=O)(=O)c1cccc2c(N(C)C)cccc12)C(=O)NCC(=O)O [ZElan090] (H-K(Dansyl)EPGDYNCCGNGNSTG-OH; C-terminus assumed)						Binding value at 25 μg/ml (HAX42 peptides, first 25 μg/ml column): 2.06; Binding value at 25 μg/ml (HAX42 peptides, second 25 μg/ml column): 1.54; Binding value at 25 μg/ml (HAX42 peptides, third 25 μg/ml column): 2.16
CC(C)C[C@H](NC(=O)[C@H](CCCNC(=N)N)NC(=O)[C@H](CCCNC(=N)N)NC(=O)[C@@H](N)CCCCNS(=O)(=O)c1cccc2c(N(C)C)cccc12)C(=O)N[C@@H](CCCNC(=N)N)C(=O)N[C@H](C(=O)N[C@@H](CCCNC(=N)N)C(=O)N[C@@H](CO)C(=O)N[C@@H](CCCNC(=N)N)C(N)=O)[C@@H](C)O [ZElan057] (H-K(Dansyl)RRLRTRSR-NH2)	0.08	0.56	0.25			
CC(C)C[C@H](NC(=O)[C@H](CCCNC(=N)N)NC(=O)[C@H](CCCNC(=N)N)NC(=O)[C@H](CC(N)=O)NC(=O)[C@H](C)NC(=O)[C@H](CO)NC(=O)[C@H](CO)NC(=O)[C@@H](N)CCCCNS(=O)(=O)c1cccc2c(N(C)C)cccc12)C(=O)N[C@@H](CCCNC(=N)N)C(=O)N[C@H](C(=O)N[C@@H](CCCNC(=N)N)C(N)=O)[C@@H](C)O [ZElan075] (H-K(Dansyl)SSANRRLRTR-NH2)	0.13	0.52	0.38	0.47	0.32	
CC(C)C[C@H](NC(=O)[C@H](CCCNC(=N)N)NC(=O)[C@H](CO)NC(=O)[C@@H](NC(=O)[C@H](CCCCN)NC(=O)[C@H](CC(N)=O)NC(=O)[C@H](CCCNC(=N)N)NC(=O)[C@@H](NC(=O)[C@H](CC(N)=O)NC(=O)[C@H](CCCNC(=N)N)NC(=O)[C@@H](N)CCCCNS(=O)(=O)c1cccc2c(N(C)C)cccc12)[C@@H](C)O)[C@@H](C)O)C(=O)N[C@@H](CO)C(=O)N[C@@H](C)C(=O)N[C@@H](CC(N)=O)C(=O)N1CCC[C@H]1C(=O)N[C@@H](Cc1c[nH]cn1)C(=O)N[C@@H](CCCNC(=N)N)C(=O)N[C@@H](CO)C(=O)N[C@@H](Cc1c[nH]cn1)C(=O)N[C@@H](CCCNC(=N)N)C(N)=O [ZElan084, reference compound] (H-K(Dansyl)RNTRNKTSRLSANPHRSHR-NH2)	1.06	1.16	0.77			Binding value at 20 μg/ml [3]: 0.93
CC(C)C[C@H](NC(=O)[C@H](CCCNC(=N)N)NC(=O)[C@H](CCCNC(=N)N)NC(=O)[C@H](CC(N)=O)NC(=O)[C@H](Cc1c[nH]cn1)NC(=O)[C@H](C)NC(=O)[C@H](CO)NC(=O)[C@@H](N)CCCCNS(=O)(=O)c1cccc2c(N(C)C)cccc12)C(=O)N[C@@H](CCCNC(=N)N)C(=O)N[C@H](C(=O)N[C@@H](CCCNC(=N)N)C(N)=O)[C@@H](C)O [ZElan074] (H-K(Dansyl)SAHNRRLRTR-NH2)	0.06	0.82	0.52	0.71	0.48	
CC(C)C[C@H](NC(=O)[C@H](CCCNC(=N)N)NC(=O)[C@H](CCCNC(=N)N)NC(=O)[C@H](CC(N)=O)NC(=O)[C@H](Cc1c[nH]cn1)NC(=O)[C@H](CO)NC(=O)[C@H](C)NC(=O)[C@@H](N)CCCCNS(=O)(=O)c1cccc2c(N(C)C)cccc12)C(=O)N[C@@H](CCCNC(=N)N)C(=O)N[C@H](C(=O)N[C@@H](CCCNC(=N)N)C(N)=O)[C@@H](C)O [ZElan073] (H-K(Dansyl)ASHNRRLRTR-NH2)	0.07	−0.11	0.49	0.66	0.49	
CC[C@H](C)[C@H](NC(=O)[C@H](C)NC(=O)[C@H](CO)NC(=O)[C@@H]1CCCN1C(=O)[C@H](CCCNC(=N)N)NC(=O)[C@H](CCCNC(=N)N)NC(=O)[C@H](CC(N)=O)NC(=O)[C@H](Cc1ccccc1)NC(=O)[C@@H](NC(=O)[C@H](CCCCN)NC(=O)[C@H](CCCNC(=N)N)NC(=O)CNC(=O)[C@@H](NC(=O)[C@H](CO)NC(=O)[C@H](CC(N)=O)NC(=O)CNC(=O)[C@H](CC(N)=O)NC(=O)CNC(=O)[C@H](CS)NC(=O)[C@H](CS)NC(=O)[C@H](CC(N)=O)NC(=O)[C@H](Cc1ccc(O)cc1)NC(=O)[C@H](CC(=O)O)NC(=O)CNC(=O)[C@@H]1CCCN1C(=O)[C@@H](N)CCCCNS(=O)(=O)c1cccc2c(N(C)C)cccc12)[C@@H](C)O)C(C)C)C(=O)N1CCC[C@H]1C(=O)N[C@H](C(N)=O)[C@@H](C)O [ZElan072] (H-K(Dansyl)PGDYNCCGNGNSTGRKVFNRRPSAIPT-NH2)						Binding value at 20 μg/ml (HAX42 peptides): 0.83; Binding value at 50 μg/ml [5]: 0.61; Binding value at 50 μg/ml [6]: 0.88
H-K(Dansyl)GRNHDVVSSNTHKSYRSPRSASYPRLSNDRTDRTEPAPSS-NH2 [ZElan083, reference compound]	0.43	1.03	0.88			Binding value at 20 μg/ml [3]: 0.63
C[C@H](NC(=O)[C@H](CCCNC(=N)N)NC(=O)[C@H](CCCNC(=N)N)NC(=O)[C@H](CC(N)=O)NC(=O)[C@H](Cc1c[nH]cn1)NC(=O)[C@H](CO)NC(=O)[C@H](CO)NC(=O)[C@@H](N)CCCCNS(=O)(=O)c1cccc2c(N(C)C)cccc12)C(=O)N[C@@H](CCCNC(=N)N)C(=O)N[C@H](C(=O)N[C@@H](CCCNC(=N)N)C(N)=O)[C@@H](C)O [ZElan079] (H-K(Dansyl)SSHNRRARTR-NH2)	0.31	0.97	0.68	0.83	0.53	
CC(C)C[C@H](NC(=O)[C@H](CCCNC(=N)N)NC(=O)[C@H](C)NC(=O)[C@H](CC(N)=O)NC(=O)[C@H](Cc1c[nH]cn1)NC(=O)[C@H](CO)NC(=O)[C@H](CO)NC(=O)[C@@H](N)CCCCNS(=O)(=O)c1cccc2c(N(C)C)cccc12)C(=O)N[C@@H](CCCNC(=N)N)C(=O)N[C@H](C(=O)N[C@@H](CCCNC(=N)N)C(N)=O)[C@@H](C)O [ZElan077] (H-K(Dansyl)SSHNARLRTR-NH2)	0.20	0.76	0.54	0.73	0.52	
CC(C)C[C@H](NC(=O)[C@H](CCCNC(=N)N)NC(=O)[C@H](CCCNC(=N)N)NC(=O)[C@H](C)NC(=O)[C@H](Cc1c[nH]cn1)NC(=O)[C@H](CO)NC(=O)[C@H](CO)NC(=O)[C@@H](N)CCCCNS(=O)(=O)c1cccc2c(N(C)C)cccc12)C(=O)N[C@@H](CCCNC(=N)N)C(=O)N[C@H](C(=O)N[C@@H](CCCNC(=N)N)C(N)=O)[C@@H](C)O [ZElan076] (H-K(Dansyl)SSHARRLRTR-NH2)	0.08	1.00	0.41	0.60	0.42	
